# Test results: patent US20130204033A1, “ANTIPROLIFERATIVE COMPOUNDS, CONJUGATES THEREOF, METHODS THEREFOR, AND USES THEREOF” (Medarex, Inc., priority 2009, published 2013)
# Like-named read-outs stand apart in the source and are kept apart here.
# Legend:
# Type in all cases: cell-based, human
# NCI-H460 = test: 3H thymidine proliferation assay, NCI-H460
# Procedure: (§1) This example generally describes the procedures used to assay the antiproliferative activity of compounds of this invention or their conjugates. Human tumor cell lines were obtained from the American Type Culture Collection (ATCC), P.O. Box 1549, Manassas, Va. 20108, USA, and cultured according to instruction from the ATCC. Cells were seeded at 1.0×10^3 or 1.0×10^4 cells/well in 96-well plates for 3 h for ATP assays or ^3H thymidine assays, respectively. 1:3 serial dilutions of free (unconjugated) compounds or their conjugates were added to the wells. Plates were allowed to incubate for 24 to 72 h. The ^3H thymidine plates were pulsed with 1.0 μCi of ^3H-thymidine per well for the last 24 hours of the total incubation period, harvested, and read on a Top Count Scintillation Counter (Packard Instruments, Meriden, Conn.). ATP levels in the ATP plates were measured using the […]-GLO® Luminescent Cell Viability kit following the manufacturer's manual and read on a GLOMAX® 20/20 luminometer (both from Promega, Madison, Wis., USA). The EC50 values—the concentration at which an agent inhibits or reduces cell proliferation by 50% —were determined using PRISM™ software, version 4.0 (GraphPad Software, La Jolla, Calif., USA).
# (§2) Using the ^3H thymidine or the ATP luminescence assay, or both, the activities of compounds of this invention were assayed against the following cancer cell lines: HCT-15 (colorectal cancer, multi-drug resistant (MDR)); Hep3B (liver cancer); LNCaP (prostate cancer, androgen receptor positive (AR^+)); MDA-MB-231 (breast cancer, estrogen receptor, progesterone receptor, and Her2 negative (triple negative)); A2058 (melanoma); U-87 MG (glioblastoma); NCI-H460 (NSCLC); A549 (NSCLC); HPAC (pancreatic cancer, primary); PC3 (prostate cancer, AR); BT474 (breast cancer, Her2 highly positive (Her2hi)); SKOV3 (ovarian cancer, Her2hi); 786-O (renal cancer); UO-31 (renal cancer, MDR); NCI-H740 (SCLC); DMS53 (SCLC); SK-BR3 (breast cancer, Her2hi); ZR-75 (breast cancer, estrogen receptor positive); OVCAR3 (ovarian cancer); HL-60 (APL); OVCAR8/Adr (ovarian cancer, MDR); CEM-Cl (ALL); Nomo-1 (AML); RPMI-8226 (MM)); Raji (lymphoma); SW-480 (colorectal cancer, metastatic); SW-620 (colorectal cancer); and H226 (lung cancer). (Not all compounds were assayed against all cell lines.)
# (§3) Table 2 provides the data for proliferation assays using the ^3H thymidine method, with an incubation period of 72 h.
# RPMI-8226 = test: ATP luminescence proliferation assay, RPMI-8226
# Procedure: as §1, §2
# (§4) Table 3 provides the data for the ATP luminescence proliferation assays, with an incubation period of 48, 72, or 96 h, as noted.
# DMS53 = test: ATP luminescence proliferation assay, DMS53
# Procedure: as §1, §2, §4
# A549 [1] = test: ATP luminescence proliferation assay, A549
# Procedure: as §1, §2, §4
# SK-BR3 [2] = test: 3H thymidine proliferation assay, SK-BR3; conditions: 3H thymidine method, 72 h incubation
# Procedure: as §1, §2, §3
# MDA-MB-231 = test: ATP luminescence proliferation assay, MDA-MB-231
# Procedure: as §1, §2, §4
# PC3 = test: 3H thymidine proliferation assay, PC3
# Procedure: as §1, §2, §3
# Raji = test: 3H thymidine proliferation assay, Raji
# Procedure: as §1, §2, §3
# SK-BR3 [3] = test: ATP luminescence proliferation assay, SK-BR3
# Procedure: as §1, §2, §4
# ZR-75 = test: ATP luminescence proliferation assay, ZR-75
# Procedure: as §1, §2, §4
# A2058 [4] = test: ATP luminescence proliferation assay, A2058
# Procedure: as §1, §2, §4
# A2058 [5] = test: 3H thymidine proliferation assay, A2058; conditions: 3H thymidine method, 72 h incubation
# Procedure: as §1, §2, §3
# A549 [6] = test: 3H thymidine proliferation assay, A549
# Procedure: as §1, §2, §3
# [7] = 3H thymidine method, 72 h incubation, read-out: EC50, NCI-H460
# [8] = ATP luminescence, RPMI-8226, 72 h incubation, read-out: EC50 RPMI-8226 (72 h)
# [9] = ATP luminescence, DMS53, 72 h incubation, read-out: EC50 DMS53 (72 h)
# [10] = ATP luminescence, MDA-MB-231, 72 h incubation, read-out: EC50 MDA-MB-231 (72 h)
# [11] = 3H thymidine method, 72 h incubation, read-out: EC50, PC3
# [12] = 3H thymidine method, 72 h incubation, read-out: EC50, Raji
# [13] = ATP luminescence, SK-BR3, 48 h incubation, read-out: EC50 SK-BR3 (48 h)
# [14] = ATP luminescence, ZR-75, 48 h incubation, read-out: EC50 ZR-75 (48 h)
# [15] = ATP luminescence, A2058, 72 h incubation, read-out: EC50 A2058 (72 h)
# [16] = 3H thymidine method, 72 h incubation, read-out: EC50, A549
# [17] = ATP luminescence, DMS53, 48 h incubation, read-out: EC50 DMS53 (48 h)
SMILES,EC50 (NCI-H460; [7]) [nM],EC50 (RPMI-8226; [8]) [nM],EC50 (DMS53; [9]) [nM],EC50 (SK-BR3 [2]) [nM],EC50 (MDA-MB-231; [10]) [nM],EC50 (PC3; [11]) [nM],EC50 (Raji; [12]) [nM],EC50 (SK-BR3 [3]; [13]) [nM],EC50 (ZR-75; [14]) [nM],EC50 (A2058 [4]; [15]) [nM],EC50 (A2058 [5]) [nM],EC50 (A549 [6]; [16]) [nM],EC50 (DMS53; [17]) [nM],further results
CC[C@H](C)[C@H](NC(=O)[C@H]1CCCCN1C)C(=O)N(C)[C@H](C[C@@H](OC)c1nc(C(=O)N[C@H](CC(=O)OC)Cc2ccccc2)cs1)C(C)C [Compound 25],,,,,,,,,,,,,,"EC50 (NCI-H460; Homo sapiens, NCI-H460, read-out: EC50, NCI-H460, 3H thymidine method, 72 h incubation): 306 nM; EC50 (RPMI-8226; Homo sapiens, RPMI-8226, 72 h, read-out: EC50 RPMI-8226 (72 h), ATP luminescence, RPMI-8226, 72 h incubation): 235 nM; EC50 (DMS53; Homo sapiens, DMS-53, 48 h, read-out: EC50 DMS53 (48 h), ATP luminescence, DMS53, 48 h incubation): 366 nM; EC50 (A549 [1]; Homo sapiens, A549, 48 h, read-out: EC50 A549 (48 h), ATP luminescence, A549, 48 h incubation): 111 nM; EC50 (SK-BR3 [2]; Homo sapiens, SK-BR-3): 1710 nM; EC50 (MDA-MB-231; Homo sapiens, MDA-MB-231, 72 h, read-out: EC50 MDA-MB-231 (72 h), ATP luminescence, MDA-MB-231, 72 h incubation): 202 nM; EC50 (PC3; Homo sapiens, PC-3, read-out: EC50, PC3, 3H thymidine method, 72 h incubation): 319 nM; EC50 (Raji; Homo sapiens, Raji, read-out: EC50, Raji, 3H thymidine method, 72 h incubation): 231 nM; EC50 (SK-BR3 [3]; Homo sapiens, SK-BR-3, 48 h, read-out: EC50 SK-BR3 (48 h), ATP luminescence, SK-BR3, 48 h incubation): > 3000 nM; EC50 (ZR-75; Homo sapiens, ZR75, 48 h, read-out: EC50 ZR-75 (48 h), ATP luminescence, ZR-75, 48 h incubation): 1000 nM; EC50 (A2058 [4]; Homo sapiens, A2058, 72 h, read-out: EC50 A2058 (72 h), ATP luminescence, A2058, 72 h incubation): 212 nM; EC50 (A2058 [5]; Homo sapiens, A2058): 409 nM; EC50 (A549 [6]; Homo sapiens, A549, read-out: EC50, A549, 3H thymidine method, 72 h incubation): 270 nM"
CC[C@H](C)[C@H](NC(=O)[C@H]1CCCCN1C)C(=O)N(COC(=O)CC(C)C)[C@H](C[C@@H](O)c1nc(C(=O)N[C@@H](Cc2ccccc2)C(=O)OC)cs1)C(C)C [Compound 28],> 100,10,58,> 100,16,> 100,13,7.8,16,20,0.96,> 100,,
CC[C@H](C)[C@H](NC(=O)[C@H]1CCCCN1C)C(=O)N(COC(=O)CC(C)C)[C@H](C[C@@H](OC(C)=O)c1nc(C(=O)N[C@@H](Cc2ccccc2)C(=O)OC)cs1)C(C)C [Compound 29],0.21,1,,1.1,5.1,0.21,0.024,3.6,15,2.9,0.4,0.44,5.3,"EC50 (A549 [1]; ATP luminescence, A549, 48 h incubation, read-out: EC50 A549 (48 h)): 3.9 nM"
CC[C@H](C)[C@H](NC(=O)[C@H]1CCCCN1C)C(=O)N(C)[C@H](C[C@@H](OC)c1nc(C(=O)N[C@@H](Cc2ccc(N)cc2)CC(C)C(=O)O)cs1)C(C)C (stereo partly shown) [Compound 51],7.2,5.2,46,> 100,,5.6,1.5,13,19,5.5,0.4,7.8,,
CC[C@H](C)[C@H](NC(=O)[C@H]1CCCCN1C)C(=O)N(C)[C@H](C[C@@H](OC(C)=O)c1nc(C(=O)N[C@@H](Cc2ccc(N)cc2)C(=O)O)cs1)C(C)C [Compound 56],> 100,5.7,,> 100,,> 100,> 100,> 100,> 100,,> 100,> 100,> 100,"EC50 (MDA-MB-231; ATP luminescence, MDA-MB-231, 48 h incubation, read-out: EC50 MDA-MB-231 (48 h)): > 100 nM; EC50 (A2058 [4]; ATP luminescence, A2058, 48 h incubation, read-out: EC50 A2058 (48 h)): > 100 nM"
